Source: patent publication US20060089395A1, “Nf-kb activation inhibitors” (priority 2002, published 2006)

Tested on: NF-κ B
Test: Inhibitory activity of NF-κ B activation, luciferase reporter assay in HepG2 under TNF-α stimulation
Format: cell-based, human
Conditions: HepG2, TNF-α (40 ng/ml), 4 hours; for inhibition at 1 µg/mL / inhibition at 10 µg/mL: Homo sapiens; for Inhibitory Ratio of NF-κ B Activation(%) Drug Concentration 1 μg/mL / inhibition at 1 µg/mL: 1 μg/mL; for inhibition at 1 µg/mL: read-out: Inhibitory Ratio of NF-κ B Activation(%) Drug Concentration 1 μg/mL; for Inhibitory Ratio of NF-κ B Activation(%) Drug Concentration 10 μg/mL / inhibition at 10 µg/mL: 10 μg/mL; for inhibition at 10 µg/mL: read-out: Inhibitory Ratio of NF-κ B Activation(%) Drug Concentration 10 μg/mL
Method in brief: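 HepG2 cells transiently transfected with a luciferase reporter driven by five tandem NF-κB binding sites, then incubated 6–24 h. Stimulated with TNF-α (40 ng/ml) with or without test compound for 4 h. Intracellular luciferase read by chemiluminescence; inhibition expressed relative to activity without compound.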

SMILES | Inhibitory Ratio of NF-κ B Activation(%) Drug Concentration 10 μg/mL [%] | Inhibitory Ratio of NF-κ B Activation(%) Drug Concentration 1 μg/mL [%] | inhibition at 1 µg/mL [%] | inhibition at 10 µg/mL [%]
CC(=O)c1sc(NC(=O)c2cc(Br)ccc2O)nc1-c1ccccc1 [Compound No. 214, 5-Bromo-N-(5-acetyl-4-phenylthiazol-2-yl)-2-hydroxybenzamide] |  |  | 70.2 | 95.9
O=C(Nc1nc(-c2ccccc2)c(C(=O)c2ccccc2)s1)c1cc(Br)ccc1O [Compound No. 215, 5-Bromo-N-(5-benzoyl-4-phenylthiazol-2-yl)-2-hydroxybenzamide] |  |  | 90.7 | 97.3
CCOC(=O)c1sc(NC(=O)c2cc(Br)ccc2O)nc1-c1ccccc1 [Compound No. 216, 2-(5-bromo-2-hydroxybenzoyl)amino-4-phenylthiazole-5-carboxylic acid ethyl ester] |  |  | 55.8 | 82.8
CCOC(=O)c1sc(NC(=O)c2cc(Br)ccc2O)nc1-c1c(F)c(F)c(F)c(F)c1F [Compound No. 219, Ethyl 2-(5-bromo-2-hydroxybenzoyl)amino-4-(pentafluorophenyl)thiazole-5-carboxylate] |  |  | 82.2 | 96
CNC(=O)c1sc(NC(=O)c2cc(Br)ccc2O)nc1-c1ccccc1 [Compound No. 220] | 58.6 | 50.8 |  | 
CCNC(=O)c1sc(NC(=O)c2cc(Br)ccc2O)nc1-c1ccccc1 [Compound No. 221] | 84.0 | 51.9 |  | 
O=C(Nc1nc(-c2ccccc2)c(C(=O)NCCc2ccccc2)s1)c1cc(Br)ccc1O [Compound No. 223] | 60.4 | 33.3 |  | 
CCOC(=O)c1sc(NC(=O)c2cc(-n3cccc3)ccc2O)nc1-c1ccccc1 [Compound No. 229] | 90.1 | 74.0 |  | 

Further lines, with some results ahead:

Inhibitory Ratio of NF-κ B Activation(%) Drug Concentration 10 μg/mL [%] | Inhibitory Ratio of NF-κ B Activation(%) Drug Concentration 1 μg/mL [%] | SMILES | inhibition at 1 µg/mL [%] | inhibition at 10 µg/mL [%]
78.8 |  | O=C(Nc1nc(-c2ccccc2)cs1)c1cc(Br)ccc1O [Compound No. 208] |  | 
72.1 |  | O=C(O)Cc1sc(NC(=O)c2cc(Br)ccc2O)nc1-c1ccccc1 [Compound No. 210] |  | 
67.0 |  | O=C(Nc1nc(-c2ccccc2)c(-c2ccccc2)s1)c1cc(Br)ccc1O [Compound No. 211] |  | 
95.0 | 79.7 | O=C(Nc1nc(Cc2ccccc2)c(-c2ccccc2)s1)c1cc(Br)ccc1O [Compound No. 212] |  | 
89.4 | 85.1 | O=C(Nc1nc(C(F)(F)F)c(-c2ccccc2)s1)c1cc(Br)ccc1O [Compound No. 213] |  | 
94.2 | 80.7 | CCOC(=O)c1sc(NC(=O)c2cc(Cl)ccc2O)nc1-c1ccccc1 [Compound No. 218] |  | 
91.3 | 49.6 | CC(C)NC(=O)c1sc(NC(=O)c2cc(Br)ccc2O)nc1-c1ccccc1 [Compound No. 222] |  | 
96.5 | 87.6 | CCOC(=O)c1sc(NC(=O)c2cc(Br)ccc2O)nc1C(F)(F)F [Compound No. 224] |  | 
85.8 | 45.0 | CCOC(=O)c1sc(NC(=O)c2cc(-c3ccc(F)cc3)ccc2O)nc1-c1ccccc1 [Compound No. 226] |  | 
90.3 | 31.8 | CCOC(=O)c1sc(NC(=O)c2cc(-c3ccc(F)cc3F)ccc2O)nc1-c1ccccc1 [Compound No. 227] |  | 
